This is an account of results in patent publication US7632946B2, “Naphthyridine-based antibacterial compositions” (Abbott Laboratories, priority 2004, dated 2009).

The subject of this assay is bacterial protein synthesis (S30 extract from quinolone-succeptable Streptococcus pneumoniae ATCC 46919). As to the kind of experiment: Cell-free translation assay, firefly luciferase reporter, S30 Streptococcus pneumoniae extract. Type of assay: biochemical. The conditions noted are these: luciferase mRNA, read-out: IC50, concentration causing 50% inhibition of bacterial protein synthesis. How it is done:
Bacterial protein synthesis inhibitory activity of representative compounds of this invention having formula (I) and the commercially-available antibacterials in TABLE 2 was determined by translation assays using the firefly luciferase reporter system described by Murray et al., (2001), “Staphylococcus aureus Cell Extract Transcription-Translation Assay: Firefly Luciferase Reporter System for Evaluating Protein Translation Inhibitors,” Antimicrob. Agents Chemother. 45(6): 1900-1904, but replacing the Staphylococcus aureus S30 extract described therein with S30 Streptococcus pneumoniae extract from quinolone-succeptable Streptococcus pneumoniae ATCC 46919, and replacing plasmid coding for the luciferase gene with mRNA (encoding produced by in vitro transcription from the plasmid pAS10rbs3) which encoded the luciferase gene with an upstream Streptococcus pneumoniae promoter and Shine-Dalgarno site.
On the technique in general: In a reporter assay the amount or activity of a reporter protein is the signal.

Structures are written as SMILES. pIC50: −log10 of the molar value.

For `CC(=O)NC[C@H]1CN(c2ccc(N3CCOCC3)c(F)c2)C(=O)O1` [Linezolid], the pIC50 was ~5.52.
